Results from BindingDB's records for doi:10.1021/jm060947x (Institut D'Investigacions Biomèdiques August Pi I, 2007).

Assays:
[1] = Displacement of [3H]R-PIA from adenosine A1 receptor in lamb striatum membrane after 1 hr
[2] = Displacement of [3H]YM 09151-2 from dopamine D2 receptor in lamb striatum membrane after 2 hrs
[3] = Displacement of [3H]SCH 23390 from dopamine D1 receptor in lamb striatum membrane after 1 hr

## CC(C)[C@H](NC(=O)[C@H](Cc1ccc([N+](=O)[O-])cc1)NC(=O)[C@@H]1C=C2c3cccc4[nH]cc(c34)C[C@H]2N(C)C1)C(=O)N1c2ccccc2C[C@H]1C(N)=O [(6aR,9R)-N-((S)-1-((S)-1-((S)-2-carbamoylindolin-1-yl)-3-methyl-1-oxobutan-2-ylamino)-3-(4-nitrophenyl)-1-oxopropan-2-yl)-7-methyl-4,6,6a,7,8,9-hexahydroindolo[4,3-fg]quinoline-9-carboxamide]
[1]
  Kd: 0.1 µM
[2]
  Kd: 2 µM

## CC(C)[C@H](NC(=O)[C@H]1C=C2c3cccc4[nH]cc(c34)C[C@H]2N(C)C1)C(=O)N[C@@H](Cc1ccc([N+](=O)[O-])cc1)C(=O)N1CCC[C@H]1C(N)=O [(6aR,9S)-N-((S)-1-((S)-1-((S)-2-carbamoylpyrrolidin-1-yl)-3-(4-nitrophenyl)-1-oxopropan-2-ylamino)-3-methyl-1-oxobutan-2-yl)-7-methyl-4,6,6a,7,8,9-hexahydroindolo[4,3-fg]quinoline-9-carboxamide]
[3]
  Kd: 0.7 µM

## CC(C)[C@H](NC(=O)[C@H](CCC1CCCCC1)NC(=O)[C@@H]1C=C2c3cccc4[nH]cc(c34)C[C@H]2N(C)C1)C(=O)N1CCC[C@H]1C(N)=O [(6aR,9R)-N-((S)-1-((S)-1-((S)-2-carbamoylpyrrolidin-1-yl)-3-methyl-1-oxobutan-2-ylamino)-4-cyclohexyl-1-oxobutan-2-yl)-7-methyl-4,6,6a,7,8,9-hexahydroindolo[4,3-fg]quinoline-9-carboxamide]
[3]
  Kd: 1.2 µM

## CC(C)[C@H](NC(=O)[C@@H]1C=C2c3cccc4[nH]cc(c34)C[C@H]2N(C)C1)C(=O)N[C@@H](Cc1ccc([N+](=O)[O-])cc1)C(=O)N1CCC[C@H]1C(N)=O [(6aR,9R)-N-((S)-1-((S)-1-((S)-2-carbamoylpyrrolidin-1-yl)-3-(4-nitrophenyl)-1-oxopropan-2-ylamino)-3-methyl-1-oxobutan-2-yl)-7-methyl-4,6,6a,7,8,9-hexahydroindolo[4,3-fg]quinoline-9-carboxamide]
[3]
  Kd: 7.8 µM

## CC(C)[C@H](NC(=O)[C@@H]1C=C2c3cccc4[nH]cc(c34)C[C@H]2N(C)C1)C(=O)N[C@@H](Cc1ccc(F)cc1)C(=O)N1CCC[C@H]1C(N)=O [(6aR,9R)-N-((S)-1-((S)-1-((S)-2-carbamoylpyrrolidin-1-yl)-3-(4-fluorophenyl)-1-oxopropan-2-ylamino)-3-methyl-1-oxobutan-2-yl)-7-methyl-4,6,6a,7,8,9-hexahydroindolo[4,3-fg]quinoline-9-carboxamide]
[2]
  Kd: 16 µM
[3]
  Kd: 0.6 µM

## CN1C[C@H](C(=O)N[C@@H](Cc2ccc([N+](=O)[O-])cc2)C(=O)N[C@@H](Cc2ccc(F)cc2)C(=O)N2CCCC(C(N)=O)C2)C=C2c3cccc4[nH]cc(c34)C[C@H]21 (stereo partly drawn) [(6aR,9R)-N-((S)-1-((S)-1-(3-carbamoylpiperidin-1-yl)-3-(4-fluorophenyl)-1-oxopropan-2-ylamino)-3-(4-nitrophenyl)-1-oxopropan-2-yl)-7-methyl-4,6,6a,7,8,9-hexahydroindolo[4,3-fg]quinoline-9-carboxamide]
[2]
  Kd: 0.02 µM
[3]
  Kd: 0.7 µM
